In ChEMBL document CHEMBL1201862, “PubChem BioAssay data set” (2004):
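The compound was tested at five concentrations on cells cultured in 96-well plates, with a 48-hour exposure period. GI50 is the concentration that inhibits growth by half.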 Active and inactive are the calls of the source. Rule as the data show it: active = GI50 up to about 1.1 µM and inactive = higher.

What was measured:
Assay in all cases: NCI anticancer screen, dose series, 48 h
[1] = system: EKVX
[2] = system: HL-60
[3] = system: Malme-3M
[4] = system: SK-MEL-2
[5] = system: DLD-1
[6] = system: SW-620
[7] = system: SK-OV-3
[8] = system: HCC 2998
[9] = system: HCT-116
[10] = system: SF-539
[11] = system: A549
[12] = system: RPMI-8226
[13] = system: SK-MEL-28
[14] = system: CCRF-CEM
[15] = system: HCT-15
[16] = system: OVCAR-8
[17] = system: NCI/ADR-RES
[18] = system: MDA-MB-435
[19] = system: MCF7
[20] = system: BT-549

Row | Structure (SMILES) | GI50 [1] | GI50 [2] | GI50 [3] | GI50 [4] | GI50 [5] | GI50 [6] | GI50 [7] | GI50 [8] | GI50 [9] | GI50 [10] | GI50 [11] | GI50 [12] | GI50 [13] | GI50 [14] | GI50 [15] | GI50 [16] | GI50 [17] | GI50 [18] | GI50 [19] | GI50 [20]
1 | Cc1[nH]c2ccccc2c1/C=C/c1c(C)[nH]c2ccccc12 | > 100 µM (inactive) | > 100 µM (inactive) | > 100 µM (inactive) | > 100 µM (inactive) | > 100 µM (inactive) | > 100 µM (inactive) | > 100 µM (inactive) | > 100 µM (inactive) | > 100 µM (inactive) | > 100 µM (inactive) | > 100 µM (inactive) | > 100 µM (inactive) | > 100 µM (inactive) | 20.7 µM (inactive) | > 100 µM | > 100 µM (inactive) | – | – | – | –
2 | COc1cc2c(c(OC)c1OC)CCNC2C1=C(O)COC1=O (stereo not drawn) | – | > 100 µM (inactive) | > 100 µM (inactive) | 61.9 µM (inactive) | > 100 µM (inactive) | > 100 µM (inactive) | > 100 µM (inactive) | > 100 µM (inactive) | > 100 µM (inactive) | > 100 µM (inactive) | > 100 µM (inactive) | 88.3 µM (inactive) | – | > 100 µM (inactive) | > 100 µM | > 100 µM (inactive) | – | – | – | –
3 | CN[C@@H]1C[C@H]2O[C@@](C)([C@@H]1OC)n1c3ccccc3c3c4c(c5c6ccccc6n2c5c31)C(=O)N[C@@H]4O | 0.0183 µM (active) | 0.0877 µM (active) | 0.0175 µM (active) | 0.0145 µM (active) | 0.149 µM (active) | 0.0764 µM (active) | 0.0267 µM (active) | 0.149 µM (active) | 0.144 µM (active) | < 0.0151 µM (active) | 0.0278 µM (active) | 0.658 µM (active) | 0.0551 µM (active) | 0.0165 µM (active) | 0.209 µM | 0.0668 µM (active) | 0.0395 µM (active) | 0.0845 µM (active) | 0.0212 µM (active) | 0.108 µM (active)
4 | CS(=O)(=O)OCCCOS(C)(=O)=O | > 100 µM (inactive) | > 100 µM (inactive) | > 100 µM (inactive) | > 100 µM (inactive) | > 100 µM (inactive) | > 100 µM (inactive) | > 100 µM (inactive) | > 100 µM (inactive) | > 100 µM (inactive) | > 100 µM (inactive) | > 100 µM (inactive) | > 100 µM (inactive) | > 100 µM (inactive) | > 100 µM (inactive) | > 100 µM | > 100 µM (inactive) | – | – | – | –
5 | COc1ccc2c(c1)OC[C@@H]1c3cc4c(cc3O[C@H]21)OCO4 | > 100 µM (inactive) | > 100 µM (inactive) | > 100 µM (inactive) | > 100 µM (inactive) | > 100 µM (inactive) | > 100 µM (inactive) | > 100 µM (inactive) | > 100 µM (inactive) | > 100 µM (inactive) | > 100 µM (inactive) | > 100 µM (inactive) | > 100 µM (inactive) | > 100 µM (inactive) | > 100 µM (inactive) | > 100 µM | > 100 µM (inactive) | – | – | – | –
6 | CCN(CC)Cc1c(/C=C\c2cc(OC)c(OC)c(OC)c2)ccc(OC)c1O | 6.1 µM (inactive) | 3.85 µM (inactive) | 3.23 µM (inactive) | 6.62 µM (inactive) | 4.09 µM (inactive) | 2.77 µM (inactive) | 2.12 µM (inactive) | 3.73 µM (inactive) | 3.33 µM (inactive) | 2.29 µM (inactive) | 4.25 µM (inactive) | 3 µM (inactive) | 15 µM (inactive) | 6.53 µM (inactive) | 2.71 µM | 4.1 µM (inactive) | 2.16 µM (inactive) | 0.264 µM (active) | 3.17 µM (inactive) | 6.01 µM (inactive)
7 | O=Cc1ccc2c(c1I)OCO2 | > 100 µM (inactive) | > 100 µM (inactive) | > 100 µM (inactive) | > 100 µM (inactive) | > 100 µM (inactive) | > 100 µM (inactive) | > 100 µM (inactive) | > 100 µM (inactive) | > 100 µM (inactive) | > 100 µM (inactive) | > 100 µM (inactive) | > 100 µM (inactive) | – | > 100 µM (inactive) | > 100 µM | > 100 µM (inactive) | – | – | – | –
8 | Cc1c(NC(=O)C(C)(C)Br)c(=O)oc2c(C)c3occc(=O)c3cc12 | > 100 µM (inactive) | > 100 µM (inactive) | 31.1 µM (inactive) | 59.6 µM (inactive) | 59 µM (inactive) | > 100 µM (inactive) | – | > 100 µM (inactive) | 59.4 µM (inactive) | 43.7 µM (inactive) | 68.5 µM (inactive) | 45.3 µM (inactive) | > 100 µM (inactive) | 28.2 µM (inactive) | 96.6 µM | 55 µM (inactive) | – | – | – | –
9 | c1cnc2c3[nH]cc4[nH]c5ccccc5c4c-3nc2c1 | > 100 µM (inactive) | 76 µM (inactive) | 28.4 µM (inactive) | 30.7 µM (inactive) | 37.8 µM (inactive) | 55.2 µM (inactive) | > 100 µM (inactive) | 52.4 µM (inactive) | 44.7 µM (inactive) | 93.3 µM (inactive) | > 100 µM (inactive) | 27.6 µM (inactive) | 50.5 µM (inactive) | 24.2 µM (inactive) | 67.5 µM | 45.1 µM (inactive) | – | – | – | –
10 | C=CC(=O)c1ccc2c(c1)OCCOCCOCCOCCOCCO2 | 24 µM (inactive) | > 58.6 µM (inactive) | 18.5 µM (inactive) | 30.5 µM (inactive) | 16.4 µM (inactive) | 18.8 µM (inactive) | > 100 µM (inactive) | > 100 µM (inactive) | 25.9 µM (inactive) | 17.7 µM (inactive) | > 100 µM (inactive) | > 38.8 µM (inactive) | 18.7 µM (inactive) | > 27.5 µM (inactive) | 21.6 µM | 20 µM (inactive) | 25.3 µM (inactive) | 19.5 µM (inactive) | 16 µM (inactive) | 19.9 µM (inactive)
11 | Nc1nc(S)nc(C(=O)Nc2nccs2)c1-c1ccccc1 | > 100 µM (inactive) | > 100 µM (inactive) | > 100 µM (inactive) | > 100 µM (inactive) | > 100 µM (inactive) | > 100 µM (inactive) | > 100 µM (inactive) | > 100 µM (inactive) | > 100 µM (inactive) | > 100 µM (inactive) | > 100 µM (inactive) | > 100 µM (inactive) | > 100 µM (inactive) | > 100 µM (inactive) | > 100 µM | > 100 µM (inactive) | – | – | – | –
12 | CCCCC(=O)OC[n+]1ccc2c(C)c3[nH]c4ccc(OC)cc4c3c(C)c2c1 | 1.14 µM (inactive) | 0.422 µM (active) | 1.16 µM (inactive) | 2.32 µM (inactive) | 0.32 µM (active) | 0.14 µM (active) | 0.656 µM (active) | 0.512 µM (active) | 0.0718 µM (active) | 0.367 µM (active) | 0.308 µM (active) | 0.0675 µM (active) | 1.32 µM (inactive) | 0.0684 µM (active) | 0.166 µM | 0.171 µM (active) | 0.234 µM (active) | 0.461 µM (active) | 0.168 µM (active) | –
13 | COc1ccc(-c2cc(C(=O)Nc3cc(C(F)(F)F)cc(C(F)(F)F)c3)c3ccccc3n2)cc1 | 9.06 µM (inactive) | 21.3 µM (inactive) | 17.9 µM (inactive) | 12.9 µM (inactive) | 11.4 µM (inactive) | 7.94 µM (inactive) | – | 11.4 µM (inactive) | 6.19 µM (inactive) | 12.3 µM (inactive) | 4.71 µM (inactive) | 6.27 µM (inactive) | 27.7 µM (inactive) | 7.6 µM (inactive) | 11.4 µM | 4.27 µM (inactive) | – | – | – | –
14 | Fc1cccc(C2SCc3nc4ccccc4n32)c1 (stereo not drawn) | 32.4 µM (inactive) | 11 µM (inactive) | 36.4 µM (inactive) | 42.3 µM (inactive) | 43.8 µM (inactive) | 54.8 µM (inactive) | 50.8 µM (inactive) | 55.7 µM (inactive) | 45.9 µM (inactive) | > 100 µM (inactive) | 43.1 µM (inactive) | 23.5 µM (inactive) | > 10 µM (inactive) | 41.2 µM (inactive) | – | 66.5 µM (inactive) | – | – | – | –
15 | O=[N+]([O-])c1ccc(-c2noc(-c3ccc(Cl)cc3)c2C2=NCCN2)cc1 | > 100 µM (inactive) | > 100 µM (inactive) | > 100 µM (inactive) | > 100 µM (inactive) | > 100 µM (inactive) | > 100 µM (inactive) | – | > 100 µM (inactive) | > 100 µM (inactive) | > 100 µM (inactive) | > 100 µM (inactive) | > 100 µM (inactive) | > 100 µM (inactive) | > 100 µM (inactive) | > 100 µM | > 100 µM (inactive) | – | – | – | –
